Experimental data published in US11884631B1 (priority 2023, dated 2024).

Experiments:
[1] = test system: Mycobacterium tuberculosis H37Rv; experiment: Anti-tubercular activity (MIC), susceptible H37Rv strain; assay type: cell-based; details: ATCC 25177 / H37Rv, MIC = minimum drug concentration inhibiting growth with no color change in the well, read-out: MIC (μg/mL) Susceptible (H37Rv)

Row | SMILES | melting point | MIC [1]
1 | Cc1ccc2c(ccc[n+]2CC(=O)c2ccc(Br)cc2)c1.[Br-] | 221 to 222 °C | –
2 | Cc1ccc2c(ccc[n+]2CC(=O)c2ccccc2[N+](=O)[O-])c1.[Br-] [Compound 3a, 6-Methyl-1-(2-(2-nitrophenyl)-2-oxoethyl)quinolin-1-ium bromide] | 218 to 219 °C | 32 µg/mL
3 | Cc1ccc2c(ccc[n+]2CC(=O)c2ccc(F)cc2)c1.[Br-] [Compound 3b, 1-(2-(4-Fluorophenyl)-2-oxoethyl)-6-methylquinolin-1-ium bromide] | 206 to 207 °C | 8 µg/mL
4 | Cc1ccc2c(ccc[n+]2CC(=O)c2cc(C(F)(F)F)cc(C(F)(F)F)c2)c1.[Br-] [Compound 3c, 1-(2-(3,5-Bis(trifluoromethyl)phenyl)-2-oxoethyl)-6-methylquinolin-1-ium bromide] | 246 to 247 °C | 16 µg/mL
